Laboratory results as given in patent US20220241311A1, “METHODS AND MATERIALS FOR TREATING GLYCOSYLATION DISORDERS” (priority 2018, published 2022).

What was measured:
[1] = system: serum transferrin; test: Glycomics / high-resolution mass spectrometry of intact serum transferrin at T0 and T3; assay type: in vivo, human; details: for Ratio A-Glyco / DiGlyco transferrin / Ratio Mono-Glyco / DiGlyco transferrin / Ratio Trisialo-Glyco / DiGlyco transferrin: T = 3; for Ratio A-Glyco / DiGlyco transferrin: control range <=0.01040; for Ratio Mono-Glyco / DiGlyco transferrin: control range <=0.02700; for Ratio Trisialo-Glyco / DiGlyco transferrin: control range <=0.031900
Protocol: Liver transaminases (aspartate transaminase (AST) and alanine transaminase (ALT)), creatine kinase (CK), commonly assayed glycoproteins (thyroid stimulating hormone (TSH), thyroxine-binding globulin (TBG), and insulin-like growth factor binding protein 3 (IGF3BP)), and coagulation parameters (Factor IX, Factor XI, activated […] (aPTT), and anti-thrombin III (ATIII)), were measured in blood. Patent 1 had additional Factor XI, and XIII measurements. Serum galactose-1-phosphate and urine galactitol were measured to monitor safety and tolerability of galactose supplementation. Biochemical studies to evaluate changes in glycosylation included isoelectric focusing (IEF) of serum transferrin and glycomic analysis in blood by mass spectrometry.
Plasma (sodium heparin) or serum was used for glycomics analysis according to the procedure as described elsewhere (see, e.g., van Scherpenzeel et al., 2015 Transl Res 166:639-649.e1). Briefly, a 10 μl serum sample was purified using anti-transferrin beads. The eluate was analyzed on a microfluidic 6540 LC-chip-QTOF instrument (Agilent Technologies) using a C8 protein chip. Data analysis was performed using Agilent Mass Hunter Qualitative Analysis Software B.05.00.
The most abundant peaks in the transferrin mass spectrometry profiles were annotated, and ratios were calculated for the nonglycosylated (A-Glyco), monoglycosylated (Mono-Glyco), and trisialo- (Trisialo-Glyco) transferrin over the normal transferrin peak (tetrasialo; Di-Glyco). Ratios were compared in patient samples before D-gal supplementation and 18 weeks after starting oral supplements according to protocol. An example is shown in FIG. 5 for a severely (patient 2) and a mildly (patient 9) abnormal profile. A-Glyco- and Mono-Glyco ratios were abnormal in all patients. […] The most pronounced improvement was measured in patient 4. In patients 3 and 8, the A-Glyco peak normalized (Table 3, FIG. 6).

[2] = system: skin fibroblasts of Patient 2; test: N- and O-linked glycan analysis by MALDI-TOF mass spectroscopy; assay type: cell-based, human
Protocol: Fibroblasts from Patient 2 were used for N- and O-linked glycan analysis with and without D-gal feeding in vitro. Upon reaching 100% confluence, the cells were washed twice with PBS and harvested using a cell scraper. The cells were then pelleted and washed with PBS by centrifugation. Fibroblast pellets were lysed in 200 μL PBS, and 200 μg protein from the cell lysate was denatured and precipitated with ˜2 Å volume of 100% propanol. N-linked and O-linked glycans were released from precipitated protein, and free oligosaccharides were purified from the supernatant. N-linked glycans were released from the cell pellets using the PNGase F kit from New England Biolabs (Ipswich, Mass., USA). O-linked glycans were released using β-elimination with sodium borohydride. The released N-linked glycans from cells or deprotonated total cell lysate were purified and desalted by solid phase extraction using a SepPak C18 and carbograph column. O-linked glycans from cells were purified and desalted using an AG 50W-X8 resin cation exchange column. N-linked glycans, O-linked glycans and oligosaccharides were permethylated with sodium hydroxide and iodomethane in dimethyl sulfoxide (DMSO). After permethylation, glycans were extracted with water/chloroform (2:1, vol/vol) in four steps and dried. Samples were then dissolved in 50% methanol, spotted with 11% 2,5-dihydroxylbenzoic acid matrix (1:1 vol/vol), and measured in triplicates and compared to two healthy controls. Measurements were performed by MALDI-TOF using the positive mode on Ultraflex MALDI-TOF/TOF system (BrunkerDaltonics, Billerica, Mass., USA) as described elsewhere (see, e.g., Xia et al., 2013 Anal Biochem 442:178-185).

[3] = 4 days of 0.75 mM galactose following 18 hours of serum starvation

O=C[C@H](O)[C@@H](O)[C@@H](O)[C@H](O)CO [D-gal, D-galactose]
Transferrin glycosylation ([1]; 8 patients, type 2 pattern shifting to mild type 1 pattern): Clear improvement
Ratio A-Glyco / DiGlyco transferrin ([1]; Patient 1): 0.042
Ratio Mono-Glyco / DiGlyco transferrin ([1]; Patient 1): 0.198
Ratio Trisialo-Glyco / DiGlyco transferrin ([1]; Patient 1): 0.0778
Ratio A-Glyco / DiGlyco transferrin ([1]; Patient 2): 0.046
Ratio Mono-Glyco / DiGlyco transferrin ([1]; Patient 2): 0.213
Ratio Trisialo-Glyco / DiGlyco transferrin ([1]; Patient 2): 0.0542
Ratio A-Glyco / DiGlyco transferrin ([1]; Patient 3): 0.002
Ratio Mono-Glyco / DiGlyco transferrin ([1]; Patient 3): 0.071
Ratio Trisialo-Glyco / DiGlyco transferrin ([1]; Patient 3): 0.0549
Ratio A-Glyco / DiGlyco transferrin ([1]; Patient 4): 0.314
Ratio Mono-Glyco / DiGlyco transferrin ([1]; Patient 4): 0.632
Ratio Trisialo-Glyco / DiGlyco transferrin ([1]; Patient 4): 0.0938
Ratio A-Glyco / DiGlyco transferrin ([1]; Patient 5): 0.021
Ratio Mono-Glyco / DiGlyco transferrin ([1]; Patient 5): 0.142
Ratio Trisialo-Glyco / DiGlyco transferrin ([1]; Patient 5): 0.0740
Ratio A-Glyco / DiGlyco transferrin ([1]; Patient 6): 0.044
Ratio Mono-Glyco / DiGlyco transferrin ([1]; Patient 6): 0.293
Ratio Trisialo-Glyco / DiGlyco transferrin ([1]; Patient 6): 0.0639
Ratio A-Glyco / DiGlyco transferrin ([1]; Patient 7): 0.108
Ratio Mono-Glyco / DiGlyco transferrin ([1]; Patient 7): 0.356
Ratio Trisialo-Glyco / DiGlyco transferrin ([1]; Patient 7): 0.0551
Ratio A-Glyco / DiGlyco transferrin ([1]; Patient 8 (non-compliant)): 0.003
Ratio Mono-Glyco / DiGlyco transferrin ([1]; Patient 8 (non-compliant)): 0.081
Ratio Trisialo-Glyco / DiGlyco transferrin ([1]; Patient 8 (non-compliant)): 0.0712
Ratio A-Glyco / DiGlyco transferrin ([1]; Patient 9): 0.019
Ratio Mono-Glyco / DiGlyco transferrin ([1]; Patient 9): 0.127
Ratio Trisialo-Glyco / DiGlyco transferrin ([1]; Patient 9): 0.0561
Transferrin glycosylation pattern ([1]; T3): None of the patients showed a normalized pattern
Transferrin glycosylation ([1]; patient 5): no change was observed
A-glyco fraction ([1]; patients 3 and 8, 18 weeks): completely normalized
N-glycan m/z 2070.06 Hexose5HexNAc4, Level [2, 3]: Normal
N-glycan m/z 2431 Sial1Hexose5HexNAc4, Level [2, 3]: Normal
N-glycan m/z 2605 + 2431 monosialo biantennary glycans, Level [2, 3]: High
N-glycan m/z 2605 Fuc1Sial1Hexose5HexNAc4, Level [2, 3]: High
O-glycan m/z 1256 core1, disialyl T, Level [2, 3]: Low
O-glycan m/z 1706 core2, disalyl, sial2hexose2hexNAc2, Level [2, 3]: High
O-glycan m/z 1706 core2, disalyl, sial2hexose2hexNAc2, % Total glycan ([2]; 4 days of 0.75 mM galactose following 18 hours of serum starvation, control range 14%): 35.12%
O-glycan m/z 1256 core1, disialyl T, % Total glycan ([2]; 4 days of 0.75 mM galactose following 18 hours of serum starvation, control range 55.12%): 11.22%
N-glycan m/z 2070.06 Hexose5HexNAc4, % Total glycan ([2]; 4 days of 0.75 mM galactose following 18 hours of serum starvation, control range <3.88%): 3.65%
N-glycan m/z 2431 Sial1Hexose5HexNAc4, % Total glycan ([2]; 4 days of 0.75 mM galactose following 18 hours of serum starvation, control range <3.90%): 2.23%
N-glycan m/z 2605 Fuc1Sial1Hexose5HexNAc4, % Total glycan ([2]; 4 days of 0.75 mM galactose following 18 hours of serum starvation, control range <4.46%): 6.15%
N-glycan m/z 2605 + 2431 monosialo biantennary glycans, % Total glycan ([2]; 4 days of 0.75 mM galactose following 18 hours of serum starvation, control range <8.36%): 8.38%
Monosialo core 1 at m/z 895 ([2]; both in control and PGM1-CDG cells): increased
Sialylation of N-glycans ([2]; in vitro galactose treatment of fibroblasts): improved sialylation
GlcNAcylation in N-linked or O-linked protein glycosylation profiles ([2]; patient 2 fibroblasts after serum starvation): No change
